Where two headings read alike, the source gives them in different places.
Key:
in vitro [1] = conditions: human, HepG2 cells
in vitro [2] = conditions: human, HFF-1 cells
in vitro [3] = conditions: human, microsomes; for microsomal CLint at 0.5 μM: pH 7.4, HLM CLint (uL/min/mg), human liver microsomes
[4] = tested on: Trypanosoma cruzi, Tulahuen CL2, beta-galactosidase strain; assay: microbe, parasite or virus in culture; conditions: MRC5, read-out: T. cruzi Tulahuen C4 (LacZ) IC50 (uM)
in vitro [5] = conditions: PAMPA
in vitro [6] = conditions: human
in vitro [7] = conditions: human; for CC50 at 120 h: THP-1 cells differentiated with PMA
[8] = tested on: primary peritoneal mouse macrophages (PMM); assay: cells; conditions: Macrophage
in vitro [9] = conditions: mouse, microsomes; for microsomal CLint at 0.5 μM: pH 7.4, MLM CLint (uL/min/mg), mouse liver microsomes
[10] = tested on: Leishmania infantum (MHOM/MA/67/ITMAP-263) intracellular amastigotes in THP-1; assay: microbe, parasite or virus in culture
[11] = tested on: Leishmania infantum MHOM/MA(BE)/67/ITMAP263 intracellular amastigotes; assay: microbe, parasite or virus in culture; conditions: Macrophage, in Mus musculus
physchem = conditions: HPLC, Ascentis Express RP Amide column
[12] = tested on: Leishmania infantum MHOM/MA(BE)/67/ITMAP263 intracellular amastigotes; conditions: intracellular amastigotes in PMM
[13] = THP-1, read-out: L. infantum MHOM/MA/67/ITMAP263 intracellular amastigotes THP-1 cells IC50 (uM)
[14] = read-out: L. Inf. pIC50, from L. infantum intracellular amastigote IC50 (converted)
[15] = read-out: L. infantum MHOM/MA(BE)/67/ITMAP263 intracellular amastigotes IC50 (uM), intracellular amastigotes

Q: With `COc1ccc(C(=O)N2CCOCC2)cc1S(=O)(=O)N(Cc1ccccc1)CC(C)(C)C` [DNDI0003407876] as the molecule, how does the CC50 (in vitro [1]) read?
A: > 64 µM

Q: And the CC50 (in vitro [2])?
A: > 64 µM

Q: And the microsomal CLint at 0.5 μM (in vitro [3])?
A: 1140 µL/min/mg

Q: And the IC50 [4]?
A: 16.7 µM

Q: And the Papp (in vitro [5])?
A: 217 nm/s

Q: And the CC50 at 3 days (in vitro [6])?
A: > 64 µM

Q: What about the CC50 at 120 h (in vitro [7]) of the same molecule?
A: > 64 µM

Q: And the IC50 ([8]; read-out: PMM IC50 (uM))?
A: > 64 µM

Q: And the microsomal CLint at 0.5 μM (in vitro [9])?
A: 858 µL/min/mg

Q: And the IC50 [10, 13]?
A: 27.5 µM

Q: And the IC50 [11, 14]?
A: 1 µM

Q: And the IC50 [11, 15]?
A: 1 µM

Q: What does the source list for `O=S1(=O)NCNc2cc(Cl)c(S(=O)(=O)N(Cc3ccccc3)Cc3ccccc3)cc21` [DNDI0003425512]?
A: CC50 (in vitro [1]): > 64 µM; CC50 (in vitro [2]): 29.5 µM; microsomal CLint at 0.5 μM (in vitro [3]): 63 µL/min/mg; IC50 [4]: 9.14 µM; Papp (in vitro [5]): 0.4 nm/s; CC50 at 3 days (in vitro [6]): 25 µM; CC50 at 120 h (in vitro [7]): 52.4 µM; IC50 ([8]; read-out: PMM IC50 (uM)): 32 µM; chromatographic logD (physchem; pH 7.4, eLogD, experimental): 4.2; IC50 [10, 13]: 24.9 µM; IC50 [11, 14]: 1.29 µM; IC50 [11, 15]: 1.28 µM

Q: Which CC50 (in vitro [1]) does the source give for `COc1ccc(Cl)cc1S(=O)(=O)N(Cc1ccccc1)C1COC(=O)OC1` [DNDI0003392146] here?
A: > 64 µM

Q: And the CC50 (in vitro [2])?
A: 54.8 µM

Q: What about the microsomal CLint at 0.5 μM (in vitro [3]) of the same molecule?
A: 21 µL/min/mg

Q: And the IC50 [4]?
A: 17 µM

Q: And the Papp (in vitro [5])?
A: 132 nm/s

Q: What about the CC50 at 3 days (in vitro [6]) of the same molecule?
A: 59.1 µM

Q: And the CC50 at 120 h (in vitro [7])?
A: > 64 µM

Q: What about the IC50 ([8]; read-out: PMM IC50 (uM)) of the same molecule?
A: > 64 µM

Q: What about the microsomal CLint at 0.5 μM (in vitro [9]) of the same molecule?
A: 118 µL/min/mg

Q: What about the chromatographic logD (physchem; pH 7.4, eLogD, experimental) of the same molecule?
A: 3.5

Q: What about the IC50 [10, 13] of the same molecule?
A: > 64 µM

Q: And the IC50 [11, 14]?
A: 17 µM

Q: And the IC50 [11, 15]?
A: 16.9 µM

Q: For `COCCOCN1CNc2cc(OC)c(S(=O)(=O)N(Cc3ccccc3)Cc3ccccc3)cc2S1(=O)=O` [Compound 29], which microsomal CLint at 0.5 h, 0.5 µM (in vitro [3]; pH 7.4, Microsome Clint Human, intrinsic in vitro clearance, liver microsomes) is on record?
A: 518 µL/min/mg

Q: What about the “potency against L. inf. in words” value [12] of the same molecule?
A: sub-micromolar potency

Q: What about the IC50 at 120 h (in vitro [7]; PMA-differentiated THP-1 cells) of the same molecule?
A: 39.8 µM

Q: And the IC50 ([8]; read-out: PMM pIC50 (converted))?
A: > 64.6 µM

Q: What about the microsomal CLint at 0.5 h, 0.5 µM (in vitro [9]; pH 7.4, Microsome Clint Mouse, intrinsic in vitro clearance, liver microsomes) of the same molecule?
A: 1370 µL/min/mg

Q: What about the chromatographic logD (physchem; pH 7.4, elog D, HPLC measured log D, pH 7.4) of the same molecule?
A: 4

Q: What about the IC50 ([10]; THP-1, 120 h, read-out: Intracellular activity pIC50 L. inf. in THP-1 (converted)) of the same molecule?
A: 14.8 µM

Q: What about the IC50 ([11]; read-out: L. inf. pIC50, intracellular amastigotes in PMM (converted), geometric mean of a minimum of two experiments ± standard error) of the same molecule?
A: 0.661 µM

Q: For `COCCN(Cc1ccccc1)S(=O)(=O)c1ccccc1OC(F)(F)F` [DNDI0003392130], which CC50 (in vitro [1]) is on record?
A: > 64 µM

Q: And the CC50 (in vitro [2])?
A: 45.1 µM

Q: What about the microsomal CLint at 0.5 μM (in vitro [3]) of the same molecule?
A: 194 µL/min/mg

Q: And the IC50 [4]?
A: 17.8 µM

Q: What about the Papp (in vitro [5]) of the same molecule?
A: 52.6 nm/s

Q: What about the CC50 at 3 days (in vitro [6]) of the same molecule?
A: > 64 µM

Q: And the CC50 at 120 h (in vitro [7])?
A: > 64 µM

Q: And the IC50 ([8]; read-out: PMM IC50 (uM))?
A: > 64 µM

Q: What about the microsomal CLint at 0.5 μM (in vitro [9]) of the same molecule?
A: 222 µL/min/mg

Q: What about the chromatographic logD (physchem; pH 7.4, eLogD, experimental) of the same molecule?
A: 3.8

Q: And the IC50 [10, 13]?
A: 31.2 µM

Q: What about the IC50 [11, 14] of the same molecule?
A: 8.32 µM

Q: And the IC50 [11, 15]?
A: 8.27 µM

Q: Which CC50 (in vitro [1]) does the source give for `COc1ccc(C(=O)N2CCOCC2)cc1S(=O)(=O)N(Cc1ccc(C(F)(F)F)nc1)CC(C)(C)C` [DNDI0003407906] here?
A: > 64 µM

Q: What about the CC50 (in vitro [2]) of the same molecule?
A: > 64 µM

Q: And the microsomal CLint at 0.5 μM (in vitro [3])?
A: 127 µL/min/mg

Q: And the IC50 [4]?
A: 35.6 µM

Q: And the Papp (in vitro [5])?
A: 157 nm/s

Q: What about the CC50 at 3 days (in vitro [6]) of the same molecule?
A: > 64 µM

Q: What about the CC50 at 120 h (in vitro [7]) of the same molecule?
A: > 64 µM

Q: What about the IC50 ([8]; read-out: PMM IC50 (uM)) of the same molecule?
A: > 64 µM

Q: And the microsomal CLint at 0.5 μM (in vitro [9])?
A: 262 µL/min/mg

Q: And the IC50 [10, 13]?
A: > 64 µM

Q: What about the IC50 [11, 14] of the same molecule?
A: 45.7 µM

Q: And the IC50 [11, 15]?
A: 45.2 µM

Q: Which results are given for `O=C(c1ccc(OCC2CCCO2)c(S(=O)(=O)NCc2ccccc2)c1)N1CCOCC1` (centres unmarked) [DNDI0003407877]?
A: CC50 (in vitro [1]): > 64 µM; CC50 (in vitro [2]): > 64 µM; microsomal CLint at 0.5 μM (in vitro [3]): 85 µL/min/mg; IC50 [4]: 31 µM; Papp (in vitro [5]): 147 nm/s; CC50 at 3 days (in vitro [6]): > 64 µM; CC50 at 120 h (in vitro [7]): > 64 µM; IC50 ([8]; read-out: PMM IC50 (uM)): > 64 µM; microsomal CLint at 0.5 μM (in vitro [9]): 181 µL/min/mg; chromatographic logD (physchem; pH 7.4, eLogD, experimental): 2.7; IC50 [10, 13]: > 64 µM; IC50 [11, 14]: > 64 µM; IC50 [11, 15]: > 64 µM

Q: With `COc1ccc(C#N)cc1S(=O)(=O)N(Cc1ccccc1)Cc1cnc(C(F)(F)F)nc1` [DNDI0003425527] as the molecule, how does the CC50 (in vitro [1]) read?
A: > 64 µM

Q: What about the CC50 (in vitro [2]) of the same molecule?
A: > 64 µM

Q: And the microsomal CLint at 0.5 μM (in vitro [3])?
A: 80 µL/min/mg

Q: What about the IC50 [4] of the same molecule?
A: 28.4 µM

Q: And the Papp (in vitro [5])?
A: 294 nm/s

Q: What about the CC50 at 3 days (in vitro [6]) of the same molecule?
A: > 64 µM

Q: What about the CC50 at 120 h (in vitro [7]) of the same molecule?
A: > 64 µM

Q: What about the IC50 ([8]; read-out: PMM IC50 (uM)) of the same molecule?
A: > 64 µM

Q: And the microsomal CLint at 0.5 μM (in vitro [9])?
A: 100 µL/min/mg

Q: And the IC50 [10, 13]?
A: 61.1 µM

Q: What about the IC50 [11, 14] of the same molecule?
A: 3.89 µM

Q: What about the IC50 [11, 15] of the same molecule?
A: 3.9 µM
